According to patent publication US4156011A, “Sulphur- and oxygen-containing diaryl compounds” (priority 1974, dated 1979):
Counter-ions that a name gives are not always drawn. Like-named read-outs stand apart in the source and are kept apart here.

What was measured:
[1] = Solubility of the isolated product; conditions: for solubility in water (in words) / solubility: water
[2] = Reduction of lipids and cholesterol in rats treated orally; assay type: in vivo; conditions: for inhibition in vivo at 20 mg/kg / inhibition in vivo at 100 mg/kg: Rattus norvegicus, 96 h; for inhibition in vivo at 20 mg/kg: oral 20 mg/kg
[3] = normal diet, oral 50 mg/kg daily, 3 and 5 days

CC(Oc1ccccc1Sc1ccc(Cl)cc1)C(=O)OCCNCCSCCCCCCCCCCSCCNCCOC(=O)C(C)Oc1ccccc1Sc1ccc(Cl)cc1 (racemic) [CRL 40 247, 6,17-Dithia-3,20-diaza-1,22-docosanediol di-(±)-[2-(4-chlorophenylthio)phenoxy-propionate]]
solubility in alcohol (in words) [1]: soluble in alcohol | solubility in water (in words) [1]: insoluble in water

CC(CNCCO)Oc1ccc(Oc2ccc(Cl)cc2)cc1.Cl (racemic) [CRL 40 301, (±)-N-Hydroxyethyl-2-[4-(4-chlorophenoxy)-phenoxy]-1-propylamine hydrochloride]
solubility [1]: 200 mg/mL

CC(CNC(C)(C)CO)Oc1ccc(Oc2ccc(Cl)cc2)cc1.Cl (racemic) [CRL 40 302, (±)-N-(β-Hydroxy-α,α-dimethylethyl)-2-[4-(4-chlorophenoxy)-phenoxy]-1-propylamine hydrochloride]
solubility [1]: 200 mg/mL

CC(Oc1ccc(Sc2ccc(Cl)cc2)cc1)C(=O)O (racemic) [CRL 40,246, (±)-2-[4-Chlorophenylthio)-phenoxy]-propionic acid]
solubility in alcohol (in words) [1]: soluble in alcohol | solubility in water (in words) [1]: insoluble in water

CC(Sc1ccc(Oc2ccc(Cl)cc2)cc1)C(=O)O (racemic) [CRL 40,281, (±)-2-[4-(4-chlorophenoxy)-phenylthio]-propionic acid]
solubility in water (in words) [1]: insoluble in water

CC(Oc1ccc(Oc2ccc(Cl)cc2)cc1)C(=O)O (racemic) [CRL 40,299, (±)-2-[4-(4-Chlorophenoxy)-phenoxy]-propionic acid]
solubility in water (in words) [1]: insoluble in water

CC(Sc1ccc(Sc2ccc(Cl)cc2)cc1)C(=O)O (racemic) [CRL 40,351, (±)-2-[p-(p-Chlorophenylthio)-phenylthio]-propionic acid]
solubility in water (in words) [1]: water-insoluble

CC(Oc1ccc(Sc2ccc(Cl)cc2)cc1)C(=O)OCCSCCCCCCCCCCSCCOC(=O)C(C)Oc1ccc(Sc2ccc(Cl)cc2)cc1 (racemic) [CRL 40,390, 3,14-Dithia-1,16-hexadecyl di-(±)-{2-[p-(p-chlorophenylthio)-phenoxy]-propionate}]
inhibition in vivo at 20 mg/kg ([2]; 4 days, read-out: reduction in the cholesterol): 25% | inhibition in vivo at 20 mg/kg ([2]; 4 days, read-out: reduction in the lipids): 25%

CC(COC(=O)CSc1ccc(Sc2ccc(Cl)cc2)cc1)SCCCCCCCCCCSC(C)COC(=O)CSc1ccc(Sc2ccc(Cl)cc2)cc1 (racemic) [CRL 40,395, (±)-2,15-Dimethyl-3,14-dithia-1,16-hexadecyl di-[p-(p-chlorophenylthio)-phenylthio-acetate]]
inhibition in vivo at 100 mg/kg ([2]; oral 100 mg/kg, 4 days): 27% | reduction in the (total) lipids ([2]; oral 100 mg/kg, 4 days): 18%

CC(Sc1ccc(Sc2ccc(Cl)cc2)cc1)C(=O)OCCSCCCCCCCCCCSCCOC(=O)C(C)Sc1ccc(Sc2ccc(Cl)cc2)cc1 (racemic) [CRL 40,398, 3,14-Dithia-1,16-hexadecyl di-(±)-{2-[p-(p-chlorophenylthio)-phenylthio]-propionate}]
change in the cholesterol content (in words) ([2]; oral 100 mg/kg, 4 days): no change in the cholesterol content | reduction in the (total) lipids ([2]; oral 100 mg/kg, 4 days): 17%

CC(COC(=O)C(C)(C)Sc1ccc(Sc2ccc(Cl)cc2)cc1)SCCCCCCCCCCSC(C)COC(=O)C(C)(C)Sc1ccc(Sc2ccc(Cl)cc2)cc1 (racemic) [CRL 40,403, (±)-2,15-Dimethyl-3,14-dithia-1,16-hexadecyl di-{2-[p-(p-chlorophenylthio)-phenylthio]-2-methylpropionate}]
inhibition in vivo at 100 mg/kg ([2]; oral 100 mg/kg, 4 days): 32% | reduction in the (total) lipids ([2]; oral 100 mg/kg, 4 days): 10%

CC(Sc1ccc(Oc2ccc(Cl)cc2)cc1)C(=O)OCCSCCCCCCCCCCSCCOC(=O)C(C)Sc1ccc(Oc2ccc(Cl)cc2)cc1 (racemic) [CRL 40,408, 3,14-Dithia-1,16-hexadecyl di-(±)-{2-[p-(p-chlorophenoxy)-phenylthio]-propionate}]
inhibition in vivo at 100 mg/kg ([2]; oral 100 mg/kg, 4 days): 20% | reduction in the (total) lipids ([2]; oral 100 mg/kg, 4 days): 17%

CC(COC(=O)C(C)Sc1ccc(Oc2ccc(Cl)cc2)cc1)SCCCCCCCCCCSC(C)COC(=O)C(C)Sc1ccc(Oc2ccc(Cl)cc2)cc1 (racemic) [CRL 40,409, (±)-2,15-Dimethyl-3,14-dithia-1,16-hexadecyl di-(±)-{2-[p-(p-chlorophenoxy)-phenylthio]-propionate}]
reduction in the (total) lipids ([2]; oral 100 mg/kg, 4 days): 9-10%

CC(Oc1ccc(S(=O)(=O)c2ccc(Cl)cc2)cc1)C(=O)OCCNCCSCCCCCCCCCCSCCNCCOC(=O)C(C)Oc1ccc(S(=O)(=O)c2ccc(Cl)cc2)cc1 (racemic) [CRL 40249, 6,17-Dithia-3,20-diaza-1,22-docosanediol di-(±)-2-[p-(p-chlorophenylsulphonyl)-phenoxy]-propionate]
solubility in alcohol (in words) [1]: insoluble in water and in alcohol | solubility in water (in words) [1]: insoluble in water

CC(COS(C)(=O)=O)Oc1ccc(Oc2ccc(Cl)cc2)cc1 (racemic) [Example 34, (±)-2-[4-(4-Chlorophenoxy)-phenoxyl]-propyl mesylate]
solubility in water (in words) [1]: insoluble in water

CC(C)(Oc1ccc(Sc2ccc(Cl)cc2)cc1)C(=O)OCCNCCSCCCCCCCCCCSCCNCCOC(=O)C(C)(C)Oc1ccc(Sc2ccc(Cl)cc2)cc1 [CRL 40 240, 6,17-Dithia-3,20-diaza-1,22-docosanediol di-p-(p-chlorophenylthio)-phenoxy-isobutyrate]
solubility in alcohol (in words) [1]: soluble in alcohol | solubility in water (in words) [1]: insoluble in water

CC(C)(Oc1ccc([S+]([O-])c2ccc(Cl)cc2)cc1)C(=O)OCCNCCSCCCCCCCCCCSCCNCCOC(=O)C(C)(C)Oc1ccc([S+]([O-])c2ccc(Cl)cc2)cc1 (centres unmarked) [CRL 40 242, 6,17-Dithia-3,20-diaza-1,22-docosanediol di-[4-(4-chlorosulphinyl)-phenoxy-isobutyrate]]
solubility in alcohol (in words) [1]: soluble in alcohol | solubility in water (in words) [1]: insoluble in water

CC(C)(Oc1ccc(Sc2ccc(Cl)cc2)cc1)C(=O)N(CCO)CCSCCCCCCCCCCSCCN(CCO)C(=O)C(C)(C)Oc1ccc(Sc2ccc(Cl)cc2)cc1 [CRL 40 254, 3,20-di[p-(p-chlorophenylthio)phenoxy-isobutyryl]-6,17-dithia-3,20-diaza-1,22-docosanediol]
solubility in water (in words) [1]: insoluble in water

CC(C)(Oc1ccc(Oc2ccc(Cl)cc2)cc1)C(=O)NCCO [CRL 40 309, N-Hydroxyethyl-2-[4-(4-chlorophenoxy)-phenoxy]-2-methylpropionamide]
solubility in water (in words) [1]: insoluble in water

CC(C)(CNCCO)Oc1ccc(Oc2ccc(Cl)cc2)cc1 [CRL 40 311, N-Ethanol-2-[4-(4-chlorophenoxy)-phenoxy]-2-methyl-1-propylamine hydrochloride]
solubility in water (in words) [1]: soluble in water

Cl.NC(COc1ccc(Oc2ccc(Cl)cc2)cc1)=NO [CRL 40 337, 4-(4-Chlorophenoxy)-phenoxy-acetamidoxime hydrochloride]
solubility in water (in words) [1]: partially soluble in water

Cl.N=C(N)COc1ccc(Oc2ccc(Cl)cc2)cc1 [CRL 40 338, 4-(4-Chlorophenoxy)-phenoxy-acetamidine hydrochloride]
solubility in water (in words) [1]: soluble in water

CC(C)(Oc1ccc(S(=O)(=O)c2ccc(Cl)cc2)cc1)C(=O)O [CRL 40,239, 4-(4-chlorophenylsulphonyl)-phenoxy-isobutyric acid]
solubility in alcohol (in words) [1]: soluble in alcohol | solubility in water (in words) [1]: insoluble in water

CC(C)(Sc1ccc(Oc2ccc(Cl)cc2)cc1)C(=O)O [CRL 40,275, 4-(4-chlorophenoxy)-phenylthio-isobutyric acid]
solubility in water (in words) [1]: insoluble in water

CC(C)(CNCCO)Sc1ccc(Oc2ccc(Cl)cc2)cc1 [CRL 40,279, N-Hydroxyethyl-4-(4-chlorophenoxy)phenylthio-isobutylamine]
solubility in water (in words) [1]: insoluble in water

O=C(CSc1ccc(Oc2ccc(Cl)cc2)cc1)OCCSCCCCCCCCCCSCCOC(=O)CSc1ccc(Oc2ccc(Cl)cc2)cc1 [CRL 40,284, 3,14-Dithia-1,16-hexadecyl di-[p-(p-chlorophenoxy)-phenylthio-acetate]]
solubility in water (in words) [1]: water-insoluble

CC(C)(Oc1ccc(Oc2ccc(Cl)cc2)cc1)C(=O)O [CRL 40,308, 4-(4-Chlorophenoxy)-phenoxy-isobutyric acid]
solubility in water (in words) [1]: insoluble in water

CC(C)(Oc1ccc(S(=O)(=O)c2ccc(Cl)cc2)cc1)C(=O)OCCNCCSCCCCCCCCCCSCCNCCOC(=O)C(C)(C)Oc1ccc(S(=O)(=O)c2ccc(Cl)cc2)cc1 [CRL 40241, 6,17-Dithia-3,20-diaza-1,22-docosanediol di-p-(p-chlorophenylsulphonyl)-phenoxy-isobutyrate]
solubility in hot alcohol (in words) ([1]; hot alcohol): soluble in hot alcohol | solubility in water (in words) [1]: insoluble in water

p-(p-Chlorophenylthio)-phenylthioacetic acid [CRL 40,386]
reduction in the concentration of cholesterol in the plasma [2, 3]: about 20% | reduction in the concentration of lipids in the plasma [2, 3]: about 20% | reduction in the (total) lipids ([2]; oral 100 mg/kg, 4 days): 42% | reduction in the cholesterol ([2]; oral 100 mg/kg, 4 days): 26%
